Source: PMC8962522, “Direct interaction of TrkA/CD44v3 is essential for NGF-promoted aggressiveness of breast cancer cells” (Journal of Experimental & Clinical Cancer Research : CR, 2022)
“Also recorded” adds a separate entry of the source.

Columns and labels:
[1] = system: TrkA/CD44v3 complex in COS-7 cells expressing TrkA and CD44v3; test: PLA TrkA/CD44v3 complex formation in COS-7 cells; assay type: cell-based, African green monkey (COS-7 cells); settings: COS-7 expressing TrkA and CD44v3; NGF 100 ng/ml, 0, 5 and 30 min; 30 fields per condition, three experiments
Method: (§1) Cells (10,000 cells per well) were grown on acid-washed eight-well glass slides (Thermo Scientific) in the appropriate medium supplemented with 10% FBS for 24 h. After NGF treatment, paraformaldehyde (PAF)-fixed cells were incubated with 4% bovine serum albumin (BSA) or 5% FBS (for 1 h at 20 °C), followed by overnight incubation with primary antibodies (rabbit anti-TrkA or rabbit anti-IgG + mouse anti-pan-CD44; mouse anti-CD44v3; mouse anti-CD44v6; mouse anti-IgG2a; mouse anti-IgG2b; or mouse anti-IgG1). PLA was performed following the manufacturer’s instructions in the assay kit (Duolink PLA; Sigma–Aldrich). To obtain the correct representation of the PLA signal for each condition, 30 fields per condition were observed using a fluorescence microscope (Eclipse TiU; Nikon, Japan). The PLA signals (red dots) were automatically quantified using ImageJ software (with an in-house-developed plug-in). After PLA, statistical analyses were performed using GraphPad Prism software to determine the mean dot intensity in the cells.
Fig. 1 The C-terminal region of CD44 variant 3 binds to TrkA. A Schematic representation of the CD44 gene and protein structure. Alternative splicing leads to the expression of CD44 variants, thus the insertion of exon 8 leads to the expression of a CD44 protein containing variant 3 (CD44v3) and the insertion of exon 11 leads to the expression of a CD44 containing variant 6 (CD44v6) (B) TrkA/CD44v3 complex formation in COS-7 cells expressing TrkA and CD44v3 was detected by the proximity ligation assay (PLA), which was performed 0, 5 and 30 min after the initiation of NGF (100 ng/ml) treatment. The images represent signals detected by PLA. Quantification of the red spots was performed by ImageJ software (30 randomly chosen fields per condition of three different experiments). Statistical analyses were performed using one-way ANOVA followed by Bonferroni’s posttest. Error bars represent the standard error of the mean (S.E.M.); *** p < 0.001. ns, nonsignificant. C NGF and/or TrkA binding to CD44v3 was measured by microscale thermophoresis (MST). MST experiments were performed on whole cell extracts of COS-7 cells expressing CD44v3. […]
Fig. 2 The C-terminal region of CD44v3 and the His112 residue of TrkA are involved in the CD44v3/TrkA interaction. TrkA/CD44v3 complex association was detected by the proximity ligation assay (PLA) in wild-type TrkA- or TrkA_H112A- and CD44v3-expressing COS-7 cells. […] Representative images of signals detected by PLA (A) and their quantification (B). […] TrkA/CD44v3 complex association was detected by PLA in wild-type TrkA and CD44v3 wild type or CD44v3 deleted mutant Δ3 or Δ4 expressing COS-7 (D, E). […] Quantification of PLA was performed using ImageJ software (30 fields per condition of three different experiments). […]

MDA-MB-231 cells = test: Transwell invasion assay through collagen I, MDA-MB-231; assay type: cell-based; settings: peptide 50 ng/mL for 30 min, NGF in lower chamber, 24 h (legend: 16 h)
Method: Transwell invasion assays were performed to assess cancer cell invasion in a Transwell chamber containing a collagen I-coated membrane (12-wells with inserts and […] pore size membranes; Corning, Life Sciences). A total of 1 × 10^6 starved cells (0.1% in SVF medium) were plated in the top chamber and incubated for 10 min before treatment with a peptide (50 ng/mL for 30 min); NGF was added to the lower chamber. After 24 h, the cells were fixed with methanol for 10 min and stained with Hoechst 33258 (1 mg/mL) for 30 min, and the cells that invaded the lower surface through the pores of the inserts were automatically counted under an inverted microscope with ImageJ software (with an in-house-developed plug-in).
Fig. 4 CD44v3 mimetic peptide 4 inhibits MDA-MB-231 breast cancer cell growth and migration/invasion. Clonogenic MDA-MB-231 cell growth was measured after 10 days in the presence of a scramble peptide (SP) or CD44v3 mimetic peptide (P4) (A, B). The elongation factor (length-to-width ratio) was assessed after 10 days in the presence or absence of NGF (C, D, E). Migration assays were performed using Ibidi devices 24 h after treatment (H, I). Invasion through collagen 1 was measured by the Transwell assay 16 h after treatment (J, K). Statistical analyses were performed using one-way ANOVA followed by Bonferroni’s posttest. […]

[2] = system: TrkA/CD44v3 complex in MDA-MB-231 cells; test: PLA TrkA/CD44v3 complex formation in MDA-MB-231 cells; assay type: cell-based; settings: NGF 100 ng/ml; 30 fields per condition, three experiments
Method: as §1
Fig. 3 CD44v3 mimetic peptide 4 blocks the TrkA-CD44 association in MDA-MB-231 breast cancer cells. TrkA/CD44v3 (A) and TrkA/CD44v6 (B) complex associations were detected by the proximity ligation assay (PLA) in MDA-MB-231 breast cancer cells. Effects of a scramble peptide (SP) (C), CD44v3 mimetic peptide 3 (P3) and 4 (P4) (D) on TrkA/CD44v3 complex formation induced by NGF. Quantification of the PLA results was performed by ImageJ software (30 randomly chosen fields per condition of three different experiments). Statistical analyses were performed using one-way ANOVA followed by Bonferroni’s posttest. The error bars represent the standard error of the mean (S.E.M.); * p < 0.05, ** p < 0.01, *** p < 0.001; ns, not significant

Substance	effect on TrkA/CD44v3 complex formation (PLA) in COS-7 cells [1]	effect on invasion of MDA-MB-231 cells (MDA-MB-231 cells)	effect on TrkA/CD44v3 complex formation (PLA) in MDA-MB-231 cells [2]
IDDDEDFISST [Peptide 4, mimetic peptide 4 (…) corresponding to the C-terminal region of CD44v3]	could decrease NGF-induced TrkA/CD44v3 complex formation in COS-7 cells	a decrease in both basal levels and NGF-induced invasion was observed	could disrupt TrkA/CD44v3 complex formation in MDA-MB-231 cells
NGF: recombinant human β-NGF (Alomone Labs, Israel)	increased the PLA-detected TrkA/CD44v3 signal in the plasma membrane of COS-7 cells following NGF stimulation; also recorded: transient and decreased 30 min after NGF stimulation	more NGF-treated cells than untreated cells invaded the collagen substrate	induced TrkA/CD44v3 complex formation in MDA-MB-231 cells at the plasma membrane within 5 min to 30 min of administration
